Test results taken from US20220273608A1, “Methods for Treating Bone-Related Disorders” (University of Maryland, Baltimore, priority 2016, published 2022).
Entries after “also recorded” stand apart in the source; their conditions may differ. Like-named read-outs stand apart in the source and are kept apart here.

How the values were obtained:
CaMKII = assay type: cell-based; conditions: for phospho-CaMKII (CaMKII activation): independently of FSS
Protocol: (§1) Cells in culture were exposed to fluid flow using a custom FSS device (63). Cell media was removed and cells were rinsed in HEPES-buffered Ringer solution containing 140 mM NaCl, 4 mM KCl, 1 mM MgSO4, 5 mM NaHCO3, 10 mM glucose, 1.8 mM CaCl2 and 10 mM HEPES (pH 7.3). Ringer solution was also used as fluid flow buffer. For Calcium-free conditions, HEPES-buffered Manganese Ringer solution, containing 140 mM NaCl, 4 mM KCl, 1 mM MgSO4, 5 mM NaHCO3, 10 mM glucose, 2 mM MnCI and 10 mM HEPES (pH 7.3), was used, and cells were loaded with BATPA AM ester (10 μM, 30 min).

Ocy454 cells [1] = experiment: ROS imaging (CellROX) of Ocy454 cells; assay type: cell-based, mouse; conditions: for ROS production: no FSS, CellROX
Protocol: (§2) Cells in culture were exposed to fluid flow using a custom FSS device (63). Cell media was removed and cells were rinsed in HEPES-buffered Ringer solution containing 140 mM NaCl, 4 mM KCl, 1 mM MgSO4, 5 mM NaHCO3, 10 mM glucose, 1.8 mM CaCl2 and 10 mM HEPES (pH 7.3). Ringer solution was also used as fluid flow buffer. For Calcium-free conditions, HEPES-buffered Manganese Ringer solution, containing 140 mM NaCl, 4 mM KCl, 1 mM MgSO4, 5 mM NaHCO3, 10 mM glucose, 2 mM MnCI and 10 mM HEPES (pH 7.3), was used, and cells were loaded with BATPA AM ester (10 μM, 30 min). […] For Ca^2+ imaging, cells were loaded with Fluo-4 AM ester (ThermoFisher, 5 μM) for 30 min, washed, and allowed to rest for 15 min to allow dye de-esterification, as described. For ROS imaging, cells were loaded with CellROX (ThermoFisher, 5 μM) for 30 min and then washed 3 times, per the manufacturer's recommendations. Individual wells were imaged as described (39). Time-lapse fluorescence intensity measurements were collected using ImageJ Time Series Analyzer plugin and data was analyzed and plotted using Origin Pro software. Final results represent a minimum of three independent experiments performed on separate days with new cultures (n>700 cells/treatment group). All conditions were run with controls on each experimental day.

Ocy454 cells [2] = experiment: Ca2+ imaging (Fluo-4) of Ocy454 cells, with or without fluid shear stress; assay type: cell-based, mouse
Protocol: as §2

sclerostin [3] = experiment: Immunoblotting for sclerostin / GAPDH in Ocy454 cells; assay type: cell-based, mouse; conditions: for sclerostin protein: independently of FSS
Protocol: as §1

Ocy454 cells [4] = experiment: Immunostaining for α-tubulin (microtubule network) in Ocy454 cells; conditions: α-tubulin immunofluorescence
Glu-tubulin [5] = conditions: Ocy454 cells in vitro
Description: The antibodies used were: a-tubulin (Sigma, T9026), Glu-tubulin (Abcam, ab48389) and TRPV4 (Abcam, ab39260).
Western blotting of whole cell extracts isolated from cells in culture following FSS or extracts isolated from murine long bone were done. Equal amounts of protein were loaded and electrophoresed on 10% SDS-PAGE gels and transferred to polyvinylidene difluoride membranes. Membranes were blocked in 5% non-fat dry milk (unless otherwise stated), probed with the indicated primary antibodies overnight and 4° C. Antibodies were detected with the appropriate horseradish peroxidase-conjugated secondary antibodies (Cell Signaling Technology) and enhanced chemiluminescence detection reagent (Biorad). […] Blots were acquired using an EpiChem gel documentation system (UVP Bioimaging Systems) and analyzed using ImageJ software.

Glu-tubulin [6] = experiment: Glu-tubulin in ex vivo murine long bone (western blot); conditions: murine cortical bone ex vivo
Description: The antibodies used were: sclerostin (R&D Sytems, AF1589), α-tubulin (Sigma, T9026), Glu-tubulin (Abcam, ab48389), phospho-CamK II Thr^286 (Cell Signaling Technologies, 12716S), total CaMKII (Cell Signaling Technologies, 11945S), and GAPDH (Millipore, MAB374).

Ocy454 cells [7] = experiment: Atomic force microscopy nano-indentation of Ocy454 cells; assay type: cell-based, mouse; conditions: AFM nanoindentation, 2 h treatment
Protocol: Ocy454 cells were plated onto 22 mm×22 mm glass coverslips and allowed to grow for 16-24 h at 37° C., 5% CO2 with αMEM media. Thereafter, cells were washed with PBS before being incubated with pharmacological agents as indicated for 2 h at 37° C., 5% CO2 in αMEM. After each treatment, cells were transferred to 60 mm culture dishes with pre-warmed HEPES based media containing identical concentrations of the aforementioned agents. Cells were probed with an MFP-1D atomic force microscope (Asylum Research) using MLCT cantilevers (Bruker) with a nominal spring constant of k=0.01 N/m. The pull distance used was 2 μm with a tip velocity of 4 μm/s to generate ˜1-2 nN of force onto the cell corresponding to ˜1 μm indentation ensuring that the cytoskeleton was effectively being probed. The elastic moduli (stiffness) of the cells were calculated using the Sneddon Hertz model as described (66).

aged mice [8] = experiment: White adipose tissue in colchicine treated aged mice
aged mice [9] = experiment: Muscle testing in colchicine treated aged mice; assay type: in vivo; conditions: 8 weeks colchicine
Protocol: Young and aged mice were treated with colchicine as per the bone formation study followed by euthanasia and muscle testing. After 8 weeks aged mice had increased muscle power.

sclerostin [10] = experiment: Bone derived sclerostin in colchicine treated aged mice; assay type: in vivo; conditions: aged mice (78 weeks), 1 mg/L colcrys in drinking water, 8 weeks
aged mice [11] = experiment: Bone formation and bone mass (DEXA, microCT) in colchicine treated aged mice; assay type: in vivo
[12] = cells treated with H2O2, no FSS
[13] = whole body DEXA, 8 weeks colchicine

SMILES: OO [H2O2, Hydrogen peroxide]
- phospho-CaMKII (CaMKII activation) (CaMKII): increased
- ROS production (Ocy454 cells [1]): stimulated
- intracellular Ca2+ (Ocy454 cells [2]; no FSS, Fluo-4): stimulated
- sclerostin protein (sclerostin [3]): reduced

SMILES: CC(=O)OCOC(=O)CN(CC(=O)OCOC(C)=O)c1ccccc1OCCOc1ccccc1N(CC(=O)OCOC(C)=O)CC(=O)OCOC(C)=O [BAPTA AM]
- FSS-induced CaMKII phosphorylation (CaMKII; 4 dynes/cm^2 FSS): inhibited
- FSS-induced decrease in sclerostin protein (sclerostin [3]; 4 dynes/cm^2 FSS): inhibited

SMILES: CC(=O)O[C@H]1C(=O)[C@@]2(C)[C@H]([C@H](OC(=O)c3ccccc3)[C@]3(O)C[C@H](OC(=O)[C@H](O)[C@@H](NC(=O)c4ccccc4)c4ccccc4)C(C)=C1C3(C)C)[C@]1(OC(C)=O)CO[C@@H]1C[C@@H]2O [Taxol]
- microtubule network density / structure (Ocy454 cells [4]): increase in microtubule density
- amount of Glu-tubulin (Glu-tubulin [5]): markedly increased; also recorded: marked increase
- FSS-induced CaMKII phosphorylation (CaMKII; 4 dynes/cm^2 FSS): reduced; also recorded: blunts
- FSS-induced CaMKII phosphorylation (CaMKII; 16 dynes/cm^2 FSS): restored
- amount of Glu-tubulin (Glu-tubulin [6]): markedly increased
- elastic modulus (cytoskeletal stiffness) (Ocy454 cells [7]): increased
- % Cells Responding to FSS, Ca2+ response (mechano-sensitivity) (Ocy454 cells [2]; 4 dynes/cm^2 FSS): statistically significant decrease
- FSS-induced Ca2+ response (Ocy454 cells [2]; 4 dynes/cm^2 FSS): blunts
- Peak(ΔF/F) magnitude of Ca2+ response (mechano-responsiveness) (Ocy454 cells [2]; 4 dynes/cm^2 FSS): decrease
- % Cells Responding to FSS, Ca2+ response (mechano-sensitivity) (Ocy454 cells [2]; 16 dynes/cm^2 FSS): restored
- Peak(ΔF/F) magnitude of Ca2+ response (mechano-responsiveness) (Ocy454 cells [2]; 16 dynes/cm^2 FSS): restored
- FSS-induced decrease in sclerostin protein (sclerostin [3]; 4 dynes/cm^2 FSS): blunts
- FSS-induced decrease in sclerostin protein (sclerostin [3]; 16 dynes/cm^2 FSS): restored

SMILES: O=C(NC1(c2ccccc2)CC1)c1c(CN2CCC(N3CCCCC3)CC2)c(-c2cccc(C(F)(F)F)c2)nc2cc(Br)ccc12 [GSK2193874]
- FSS-induced CaMKII phosphorylation (CaMKII; 4 dynes/cm^2 FSS): reduction
- H2O2-induced ROS (Ocy454 cells [1]; [12]): without affecting
- % Cells Responding to FSS, Ca2+ response (mechano-sensitivity) (Ocy454 cells [2]; 4 dynes/cm^2 FSS): statistically significant decrease
- Peak(ΔF/F) magnitude of Ca2+ response (mechano-responsiveness) (Ocy454 cells [2]; 4 dynes/cm^2 FSS): statistically significant decrease
- H2O2-induced Ca2+ influx (Ocy454 cells [2]; [12]): blunted
- FSS-induced decrease in sclerostin protein (sclerostin [3]; 4 dynes/cm^2 FSS): blunted

SMILES: CC(=O)N[C@@H](CS)C(=O)O [NAC, N-acetylcysteine]
- FSS-induced CaMKII phosphorylation (CaMKII; FSS, magnitude not stated): reduction
- FSS-induced Ca2+ response (Ocy454 cells [2]; 4 dynes/cm^2 FSS): abrogated
- FSS-induced Ca2+ response (Ocy454 cells [2]; 16 dynes/cm^2 FSS): abrogated
- FSS-induced decrease in sclerostin protein (sclerostin [3]; FSS, magnitude not stated): blunting

SMILES: COc1ccc(S(=O)(=O)N(CCO)c2ccccc2CN(C)C/C=C/c2ccc(Cl)cc2)cc1 [KN-93]
- FSS-induced decrease in sclerostin protein (sclerostin [3]; 4 dynes/cm^2 FSS): prevented

SMILES: COc1cc2c(c(OC)c1OC)-c1ccc(OC)c(=O)cc1[C@@H](NC(C)=O)CC2 [colchicine]
- microtubule network density / structure (Ocy454 cells [4]): reduction
- FSS-induced CaMKII phosphorylation (CaMKII; 4 dynes/cm^2 FSS): eliminated
- white adipose accumulation / fat mass in white adipose depots (aged mice [8]): reduced
- adipocyte area (aged mice [8]; 8 weeks colchicine): 1441.64 μm^2
- gonadal fat (aged mice [8]; 8 weeks colchicine): reduced
- inguinal fat (aged mice [8]; 8 weeks colchicine): reduced
- % Cells Responding to FSS, Ca2+ response (mechano-sensitivity) (Ocy454 cells [2]; 4 dynes/cm^2 FSS): decreased
- Peak(ΔF/F) magnitude of Ca2+ response (mechano-responsiveness) (Ocy454 cells [2]; 4 dynes/cm^2 FSS): reducing
- % Cells Responding to FSS, Ca2+ response (mechano-sensitivity) (Ocy454 cells [2]; 16 dynes/cm^2 FSS): decreased
- Peak(ΔF/F) magnitude of Ca2+ response (mechano-responsiveness) (Ocy454 cells [2]; 16 dynes/cm^2 FSS): reducing
- maximum contraction velocity (aged mice [9]): increase
- maximum muscle power (aged mice [9]): increase; also recorded: improved
- muscle mass in the gastrocnemius muscle (aged mice [9]): did not increase
- bone derived sclerostin (sclerostin [10]): decreased; also recorded: reduced
- trabecular bone mass (aged mice [11]; 8 weeks colchicine): No changes were observed
- bone accumulation (aged mice [11]; aged mice): increases
- bone formation rate (BFR) on the cortical bone perimeter (aged mice [11]; aged mice (78 weeks), 1 mg/L colcrys in drinking water, 8 weeks): increased; also recorded: improved
- cortical bone volume (aged mice [11]; microCT, 8 weeks colchicine): tended towards increases
- polar mean moment of inertia (aged mice [11]; microCT, 8 weeks colchicine): tended towards increases
- bone mineral content (BMC) (aged mice [11]; [13]): tended towards increases
- bone mineral density (BMD) (aged mice [11]; [13]): tended towards increases
- FSS-induced decrease in sclerostin protein (sclerostin [3]; 4 dynes/cm^2 FSS): eliminated

SMILES: CC(C)C[C@H](NC(=O)c1cc2ccccc2s1)C(=O)N1CCN(C(=O)[C@H](CO)NS(=O)(=O)c2ccc(Cl)cc2Cl)CC1 [GSK-1016790A]
- phospho-CaMKII (CaMKII activation) (CaMKII): activation
- ROS production (Ocy454 cells [1]): insufficient to induce
- sclerostin protein (sclerostin [3]): reduction
